# Results from patent publication US9023821B2, “Use of MicroRNA for treating diseases associated with a dysfunction of the cilia in multiciliated epithelial cells” (Centre National de la Recherche Scientifique, priority 2009, dated 2015).
# What was measured:
# [1] = system: human airway epithelial cells (HAECs); assay: High-throughput sequencing (HTS) of miRNAs at four stages of differentiation of HAECs; conditions: for Modulation (ratio of the level of intensity of expression in log2 in two stages of differentiation) measured by high-throughput sequencing, D7 − D0 / Modulation (ratio of the level of intensity of expression in log2 in two stages of differentiation) measured by high-throughput sequencing, FC − D7 / Modulation (ratio of the level of intensity of expression in log2 in two stages of differentiation) measured by high-throughput sequencing, WD − D0 / Modulation (ratio of the level of intensity of expression in log2 in two stages of differentiation) measured by high-throughput sequencing, WD − FC / Level of intensity of expression in log2 measured by high-throughput sequencing, D0 / Level of intensity of expression in log2 measured by high-throughput sequencing, D7 / Level of intensity of expression in log2 measured by high-throughput sequencing, FC / Level of intensity of expression in log2 measured by high-throughput sequencing, WD: Table VI; for Level of intensity of expression in log2 At the differentiated stage (WD) measured in HTS: healthy human airway epithelial tissue; for Level of intensity of expression in log2 measured by high-throughput sequencing, D0: stage D0; for Level of intensity of expression in log2 measured by high-throughput sequencing, D7: stage D7; for Level of intensity of expression in log2 measured by high-throughput sequencing, FC: stage FC; for Level of intensity of expression in log2 At the differentiated stage (WD) measured in HTS / Level of intensity of expression in log2 measured by high-throughput sequencing, WD: stage WD
# Procedure, shortened: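 ALI cultures sampled at day 0, day 7, first-cilia stage (~14 d) and full differentiation (~21 d). Trizol lysis, column purification retaining small RNAs. Adaptor ligation, RT at 42° C for 30 min, PCR, gel selection of ~105-150 base products.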
# [2] = system: basal cells and pyramidal cells of the airway epithelium; assay: miRNA expression in sorted basal cells versus pyramidal cells (ciliated + secretory), HTS and Agilent chips; set-up: species or system human; conditions: for Modulation of expression of the miRNAs in pyramidal cells (323(−)) relative to basal cells 323(+): HTS and Agilent chips; for Intensity of the level of expression in log2 in pyramidal cells (323(−)): pyramidal cells (ciliated + secretory)
# Procedure, shortened: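 FACS on CD151 and tissue factor: double-positive = basal, double-negative = ciliated + mucus cells; DAPI, doublets, aggregates excluded; sort at 5000 events/s. Purity checked by cytometry/immunocytochemistry. miRNA by Agilent array or HTS on total RNA. Source: nasal polyps/conchae, 3 donors.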
# [3] = system: human airway epithelial cells (HAECs); assay: Agilent miRNA chips, miRNA expression at four stages of differentiation of HAECs; conditions: for Modulation (ratio of the level of intensity of expression in log2 in two stages of differentiation) measured with the Agilent chips, D7 − D0 / Modulation (ratio of the level of intensity of expression in log2 in two stages of differentiation) measured with the Agilent chips, FC − D7 / Modulation (ratio of the level of intensity of expression in log2 in two stages of differentiation) measured with the Agilent chips, WD − D0 / Modulation (ratio of the level of intensity of expression in log2 in two stages of differentiation) measured with the Agilent chips, WD − FC / Level of intensity of expression in log2 measured with the Agilent chips, D0 / Level of intensity of expression in log2 measured with the Agilent chips, D7 / Level of intensity of expression in log2 measured with the Agilent chips, FC / Level of intensity of expression in log2 measured with the Agilent chips, WD: Table VI; for Modulation (ratio of the level of intensity of expression in log2 at two stages of differentiation), FC − D7 / Modulation (ratio of the level of intensity of expression in log2 at two stages of differentiation), WD − FC: Agilent miRNA chips, Table V; for Level of intensity of expression in log2 measured with the Agilent chips, D0: stage D0; for Level of intensity of expression in log2 measured with the Agilent chips, D7: stage D7; for Level of intensity of expression in log2 measured with the Agilent chips, FC: stage FC; for Level of intensity of expression in log2 measured with the Agilent chips, WD: stage WD
# Procedure, shortened: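 RNA from the same patients used for small-RNA sequencing was labelled and hybridized to a Human miRNA Microarray v2 (866 human and 89 human viral miRNAs, covering miRBase v.12.0) with the kit's labelling and hybridization protocol, giving miRNA expression profiles to compare against the sequencing data.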
Substance,"Modulation (ratio of the level of intensity of expression in log2 in two stages of differentiation) measured by high-throughput sequencing, D7 − D0 [1] [log2]","Modulation (ratio of the level of intensity of expression in log2 in two stages of differentiation) measured by high-throughput sequencing, FC − D7 [1] [log2]","Modulation (ratio of the level of intensity of expression in log2 in two stages of differentiation) measured by high-throughput sequencing, WD − D0 [1] [log2]","Modulation (ratio of the level of intensity of expression in log2 in two stages of differentiation) measured by high-throughput sequencing, WD − FC [1] [log2]",Level of intensity of expression in log2 At the differentiated stage (WD) measured in HTS [1] [log2],"Level of intensity of expression in log2 measured by high-throughput sequencing, D0 [1] [log2]","Level of intensity of expression in log2 measured by high-throughput sequencing, D7 [1] [log2]","Level of intensity of expression in log2 measured by high-throughput sequencing, FC [1] [log2]","Level of intensity of expression in log2 measured by high-throughput sequencing, WD [1] [log2]",Modulation of expression of the miRNAs in pyramidal cells (323(−)) relative to basal cells 323(+) [2],Intensity of the level of expression in log2 in basal cells (323(+)) [2] [log2],Intensity of the level of expression in log2 in pyramidal cells (323(−)) [2] [log2],"Modulation (ratio of the level of intensity of expression in log2 in two stages of differentiation) measured with the Agilent chips, D7 − D0 [3] [log2]","Modulation (ratio of the level of intensity of expression in log2 at two stages of differentiation), FC − D7 [3] [log2]","Modulation (ratio of the level of intensity of expression in log2 in two stages of differentiation) measured with the Agilent chips, FC − D7 [3] [log2]","Modulation (ratio of the level of intensity of expression in log2 in two stages of differentiation) measured with the Agilent chips, WD − D0 [3] [log2]","Modulation (ratio of the level of intensity of expression in log2 at two stages of differentiation), WD − FC [3] [log2]","Modulation (ratio of the level of intensity of expression in log2 in two stages of differentiation) measured with the Agilent chips, WD − FC [3] [log2]","Level of intensity of expression in log2 measured with the Agilent chips, D0 [3] [log2]","Level of intensity of expression in log2 measured with the Agilent chips, D7 [3] [log2]",other results
"hsa-miR-30b: human miRNA, SEQ ID No. 33 (UGUAAACAUCCUACACUCAGCU; expressed or natural sequence; listed as Homo sapiens)",0.83,−0.27,1.24,0.68,0.01,8.50,9.33,9.06,9.74,−0.80,8.76,7.96,2.36,0.05,0.05,2.55,0.15,0.15,7.62,9.98,"Level of intensity of expression in log2 measured with the Agilent chips, FC [3]: 10.03 log2; Level of intensity of expression in log2 measured with the Agilent chips, WD [3]: 10.17 log2"
"hsa-miR-30c: human miRNA, SEQ ID No. 34 (UGUAAACAUCCUACACUCUCAGC; expressed or natural sequence; listed as Homo sapiens)",0.32,−0.33,−0.40,−0.39,10.87,0.42,0.73,0.41,0.01,−1.01,6.92,5.91,1.97,−0.34,−0.34,1.51,−0.12,−0.12,7.80,9.77,"Level of intensity of expression in log2 measured with the Agilent chips, FC [3]: 9.43 log2; Level of intensity of expression in log2 measured with the Agilent chips, WD [3]: 9.31 log2"
"hsa-miR-30d: human miRNA, SEQ ID No. 35 (UGUAAACAUCCCCGACUGGAAG; expressed or natural sequence; listed as Homo sapiens)",0.64,−0.09,1.75,1.20,8.76,9.12,9.76,9.67,10.87,−1.11,8.16,7.05,1.88,−0.06,−0.06,1.86,0.05,0.05,7.06,8.94,"Level of intensity of expression in log2 measured with the Agilent chips, FC [3]: 8.88 log2; Level of intensity of expression in log2 measured with the Agilent chips, WD [3]: 8.92 log2"
"hsa-miR-30e: human miRNA, SEQ ID No. 36 (UGUAAACAUCCUUGACUGGAAG; expressed or natural sequence; listed as Homo sapiens)",1.27,−0.02,1.71,0.46,12.74,7.04,8.31,8.30,8.76,−1.60,6.94,5.34,2.76,−0.25,−0.25,2.38,−0.13,−0.13,6.73,9.50,"Level of intensity of expression in log2 measured with the Agilent chips, FC [3]: 9.25 log2; Level of intensity of expression in log2 measured with the Agilent chips, WD [3]: 9.12 log2"
"hsa-miR-34a: human miRNA, SEQ ID No. 38 (UGGCAGUGUCUUAGCUGGUUGU; expressed or natural sequence; listed as Homo sapiens)",1.46,−1.04,0.88,0.45,13.75,10.31,11.77,10.73,11.18,0.64,6.72,7.36,2.31,−0.54,−0.54,1.91,0.13,0.13,8.58,10.89,"Level of intensity of expression in log2 measured with the Agilent chips, FC [3]: 10.35 log2; Level of intensity of expression in log2 measured with the Agilent chips, WD [3]: 10.49 log2"
